Data taken from US20220073470A1, “INHIBITORS OF CGAS ACTIVITY AS THERAPEUTIC AGENTS” (BELLBROOK LABS, LLC, priority 2019, published 2022).
Read-outs that look alike come from different tables or passages of the source.

Target: T1, full-length human cGAS (Homo sapiens, UniProt Q8N884)
T1 construct: The cGAS assay was used to screen 100,000 compounds with full-length human cGAS; 6xHis; made in house
Experiment: cGAS enzymatic assay (FP readout), inhibition of cGAS
Format: biochemical
Method: Some exemplary compounds of the disclosure were tested for inhibition of cGAS (30 nM). The results are provided in Table 1 where “A” indicates an IC50 of less than 100 nM, “B” indicates an IC50 of greater than 100 nM and less than 500 nM, “C” indicates an IC50 of greater than 500 nM and less than 1 μM, “D” indicates an IC50 of greater than 1 μM and less than 10 μM, and “E” indicates an IC50 of greater than 10 μM.
A homogenous cGAS enzymatic assay was developed with fluorescence polarization (FP) and time-resolved Forster resonance energy transfer (TR-FRET) readouts (FIG. 2A-D). The cGAS assay was used to screen 100,000 compounds with full-length human cGAS (FIG. 2E), resulting in the identification of novel chemotypes, two of which are further developed in a structure-driven hit-to-lead study (Table 3, below). The assay performance was robust, as indicated by respective Z and Z′ values of 0.59 and 0.63 in the screen; compounds with polarization values greater than three SDs from the mean were considered hits; a scatterplot from 10 plates (3,200 compounds) is shown in FIG. 2D.
Potency and MOA studies, including Mn^2+ sensitivity, are performed using the cGAS enzymatic assay. Dose response experiments are used to determine IC50 values under basal conditions (5 mM MgCl2, 100 μM ATP/GTP), and with the addition of physiological levels of Mn (0.2 mM) using human and mouse cGAS. Ligand optimization is driven by potency with the human enzyme; potency with mouse cGAS informs selection of an appropriate disease model for efficacy studies. Competition with ATP and GTP is assessed by comparing basal IC50 values to those in the presence of saturating ATP or GTP, and subsequently confirmed by measuring velocity vs. substrate at varying ATP or GTP levels. Inhibitor residence times (1/koff) are used as a key parameter for prioritizing compounds and driving SAR, because a longer residence time often results from an allosteric mechanism, and can also correlate with improved cellular activity. The cGAS enzymatic assay is used with the jump dilution method to measure residence times (inhibitor dissociation rates), as described for kinases using the very similar ADP assay. Biophysical methods, including SPR and TSAn, are used as orthologous methods for residence time measurements and kd estimates.

[1] = cGAS (30 nM), no Mn2+, read-out: Inhibition cGAS (IC50 class)
[2] = cGAS (30 nM), with Mn2+, read-out: Inhibition cGAS + Mn^2+ (IC50 class)

T1 sequence (Q8N884 whole entry): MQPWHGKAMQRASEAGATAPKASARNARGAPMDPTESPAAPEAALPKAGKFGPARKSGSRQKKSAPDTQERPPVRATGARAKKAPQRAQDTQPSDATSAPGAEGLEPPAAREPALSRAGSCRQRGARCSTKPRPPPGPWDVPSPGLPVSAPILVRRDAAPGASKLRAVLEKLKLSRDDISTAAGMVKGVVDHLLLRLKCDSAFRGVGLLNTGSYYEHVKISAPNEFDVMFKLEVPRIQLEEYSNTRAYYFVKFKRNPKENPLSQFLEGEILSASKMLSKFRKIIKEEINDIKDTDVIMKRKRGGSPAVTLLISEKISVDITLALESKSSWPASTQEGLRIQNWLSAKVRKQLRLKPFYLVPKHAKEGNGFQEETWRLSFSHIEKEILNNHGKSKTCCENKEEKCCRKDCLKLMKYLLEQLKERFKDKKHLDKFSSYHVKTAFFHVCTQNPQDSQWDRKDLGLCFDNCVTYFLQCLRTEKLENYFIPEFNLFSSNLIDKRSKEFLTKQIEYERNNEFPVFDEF

Clc1ccc2c(-n3ccnc3)ccnc2c1 [Compound 1, 7-chloro-4-(1H-imidazol-1-yl)quinolone] was tested, and the IC50 (5 mM Mg2+, 0.2 mM Mn2+, read-out: IC50 (5 mM Mg^2+, 0.2 mM Mn^2+)) was 0.79 µM, the IC50 (5 mM Mg2+, no Mn2+, read-out: IC50 (5 mM Mg^2+)) was 5.4 µM and the IC50 [1] was 1 to 10 µM. For the same compound, the IC50 [2] was 0.1 to 0.5 µM.

O=C(O)CNc1nc(-c2ccccc2)nc2ccccc12 [Compound 2, (2-phenylquinazolin-4-yl)glycine] gave an IC50 [1] greater than 10 µM and an IC50 [2] greater than 10 µM.

COc1ccc2nccc(-n3ccnc3)c2c1 [Compound 3, 4-(1H-imidazol-1-yl)-6-methoxyquinoline] gave an IC50 [1] greater than 10 µM and an IC50 [2] of 1 to 10 µM.

Brc1ccc2c(-n3ccnc3)ccnc2c1 [Compound 4, 7-bromo-4-(1H-imidazol-1-yl)quinoline] showed an IC50 [1] of 1 to 10 µM and an IC50 [2] of 0.1 to 0.5 µM.

For Clc1ccc2c(-n3ccnc3)ncnc2c1 [Compound 5, 7-chloro-4-(1H-imidazol-1-yl)quinazoline], the IC50 [1] was greater than 10 µM and the IC50 [2] was greater than 10 µM.

With COc1ccc2c(-n3ccnc3)ccnc2c1 [Compound 6, 4-(1H-imidazol-1-yl)-7-methoxyquinoline] the IC50 [1] was greater than 10 µM and the IC50 [2] was 1 to 10 µM.

Compound Brc1ccc2nccc(-n3ccnc3)c2c1 [Compound 7, 6-bromo-4-(1H-imidazol-1-yl)quinoline] has an IC50 [1] greater than 10 µM and an IC50 [2] of 1 to 10 µM.

For Fc1ccc2c(-n3ccnc3)ccnc2c1 [Compound 8, 7-fluoro-4-(1H-imidazol-1-yl)quinoline], the IC50 [1] was greater than 10 µM and the IC50 [2] was greater than 10 µM.

Nc1ccc2c(-n3ccnc3)ccnc2c1 [Compound 9, 4-(1H-imidazol-1-yl)quinolin-7-amine] was tested, and the IC50 [2] was greater than 10 µM.

Work on c1ccc(-c2ccc3nccc(-n4ccnc4)c3c2)cc1 [Compound 10, 4-(1H-imidazol-1-yl)-6-phenylquinoline] yielded an IC50 [2] of 1 to 10 µM.

Nc1ccc2nccc(-n3ccnc3)c2c1 [Compound 11, 4-(1H-imidazol-1-yl)quinolin-6-amine] was tested, and the IC50 [1] was greater than 10 µM and the IC50 [2] was 1 to 10 µM.

Compound Clc1ccc2c(-n3ccnc3)cc(-c3ccccc3)nc2c1 [Compound 12, 7-chloro-4-(1H-imidazol-1-yl)-2-phenylquinoline] has an IC50 [1] of 1 to 10 µM and an IC50 [2] of 0.1 to 0.5 µM.

In the case of Clc1ccc2c(-n3ccnc3)c(-c3ccccc3)cnc2c1 [Compound 13, 7-chloro-4-(1H-imidazol-1-yl)-3-phenylquinoline], the IC50 [1] is reported as 0.5 to 1 µM and the IC50 [2] is reported as 0.1 to 0.5 µM.

COc1cc2c(-n3ccnc3)c(C(=O)O)cnc2cc1Cl [Compound 15, 7-chloro-4-(1H-imidazol-1-yl)-6-methoxyquinoline-3-carboxylic acid] gave an IC50 [1] of 0.1 to 0.5 µM and an IC50 [2] of less than 0.1 µM.

In the case of Cc1cc2c(-n3ccnc3)ccnc2cc1Cl [Compound 16, 7-chloro-4-(1H-imidazol-1-yl)-6-methylquinoline], the IC50 [1] is reported as 1 to 10 µM and the IC50 [2] is reported as 0.5 to 1 µM.

For COc1cc2c(N3CCC[C@H]3C(=O)O)nc(-c3ccccc3)nc2cc1Cl [Compound 17, (7-chloro-6-methoxy-2-phenylquinazolin-4-yl)-L-proline], the IC50 [1] was 1 to 10 µM and the IC50 [2] was greater than 10 µM.

Compound Cc1cc(-n2ccnc2)c2ccc(Cl)cc2n1 [Compound 18, 7-chloro-4-(1H-imidazol-1-yl)-2-methylquinoline] has an IC50 [1] of 0.5 to 1 µM and an IC50 [2] of 0.1 to 0.5 µM.

In the case of Nc1cc(-n2ccnc2)c2ccc(Cl)cc2n1 [Compound 19, 7-chloro-4-(1H-imidazol-1-yl)quinolin-2-amine], the IC50 [1] is reported as 0.5 to 1 µM.

Compound COc1cc2c(-n3ccnc3)ccnc2cc1Br [Compound 22, 7-bromo-4-(1H-imidazol-1-yl)-6-methoxyquinoline] has an IC50 [1] of 0.1 to 0.5 µM and an IC50 [2] of less than 0.1 µM.

With CCOc1cc2c(-n3ccnc3)ccnc2cc1Cl [Compound 23, 7-chloro-6-ethoxy-4-(1H-imidazol-1-yl)quinolone] the IC50 [1] was 0.5 to 1 µM and the IC50 [2] was 0.1 to 0.5 µM.

Cc1ccc(S(=O)(=O)Nc2ccc(C(=O)Nc3ccncc3)cc2)cc1 [Compound 24, 4-((4-methylphenyl)sulfonamido)-N-(pyridin-4-yl)benzamide] showed an IC50 [1] greater than 10 µM.

For O=C(Cc1ccccc1)Nc1ccc(C(=O)Nc2ccccc2C(=O)O)cc1 [Compound 25, 2-(4-(2-phenylacetamido)benzamido)benzoic acid], the IC50 [1] was greater than 10 µM and the IC50 [2] was greater than 10 µM.

Compound O=C(Cc1ccccc1)Nc1ccc(C(=O)Nc2ccc(C(=O)O)cc2)cc1 [Compound 26, 4-(4-(2-phenylacetamido)benzamido)benzoic acid] has an IC50 [1] greater than 10 µM and an IC50 [2] greater than 10 µM.

In the case of O=C(Nc1ccc(C(=O)Nc2ccccc2C(=O)O)cc1)c1ccc(I)cc1 [Compound 27, 2-(4-(4-iodobenzamido)benzamido)benzoic acid], the IC50 [1] is reported as greater than 10 µM and the IC50 [2] is reported as greater than 10 µM.

O=C(Nc1ccccc1C(=O)O)c1ccc(NC(=O)c2ccccc2Br)cc1 [Compound 28, 2-(4-(2-bromobenzamido)benzamido)benzoic acid] showed an IC50 [1] greater than 10 µM and an IC50 [2] greater than 10 µM.

In the case of COc1ccc(CC(=O)Nc2cccc(C(=O)Nc3ccccc3C(=O)O)c2)cc1 [Compound 29, 2-(3-(2-(4-methoxyphenyl)acetamido)benzamido)benzoic acid], the IC50 [1] is reported as greater than 10 µM and the IC50 [2] is reported as greater than 10 µM.

In the case of COc1ccccc1CC(=O)Nc1cccc(C(=O)Nc2ccccc2C(=O)O)c1 [Compound 30, 2-(3-(2-(2-methoxyphenyl)acetamido)benzamido)benzoic acid], the IC50 [1] is reported as greater than 10 µM.

O=C(NCc1ccccc1)c1nc2[nH]c3c(c(=O)n2n1)CCC3 [Compound 31, N-benzyl-8-oxo-5,6,7,8-tetrahydro-4H-cyclopenta[d][1,2,4]triazolo[1,5-a]pyrimidine-2-carboxamide] gave an IC50 [1] greater than 10 µM.

O=C(O)[C@@H](Cc1ccccc1)Nc1ncnc2c1CCCC2 [Compound 32, (5,6,7,8-tetrahydroquinazolin-4-yl)-D-phenylalanine] showed an IC50 [1] greater than 10 µM and an IC50 [2] greater than 10 µM.

CCN(CC)CCCC(C)Nc1c2ccc(Cl)cc2nc2ccc(OC)cc12 (stereo not shown) [quinacrine, reference compound] was tested, and the “Effect of Mn^2+ on potency against cGAS” value (Mn2+ at physiological concentration (200 μM)) was “significantly less potent”.
